Reference: patent publication US20110269790A1, “NOVEL THIENOPYRIDINES AS PHARMACOLOGICALLY ACTIVE AGENTS” (priority 2009, published 2011)

Assays:
Wistar rats [1] = assay: Antidiabetic activity by starch loaded model; format: in vivo, rat; settings: test compounds 100 mg/kg, Acarbose 10 mg/kg oral
Text: Experimental Animals—Wistar rats of either sex were used for the present study. Animals selected for use in the study were of uniform age and body weight. A minimum of 40 rats, from which eventually 20 rats were selected. Their body weights were in the range of 150-180 gm. The health status of the animals was ascertained by a veterinary surgeon. […] Animals were acclimatized for at least two weeks prior to start of the study. The animals were provided with pellet diet manufactured by NIN, HYDERABAD, India and drinking water adlibitum.
Compound Preparation The required quantity of the synthetic compounds were weighed and made suspension with gum acacia (2%). The test compounds were administered to all rats by per oral route. Acarbose suspension was also prepared in gum acasia suspension and given by oral route.
Antidiabetic activity by Starch model: The method of Rao et al., 2009;Tiwari et al was employed. Animals were fasted over night (12 hrs). Basal blood glucose levels were estimated for all the animals prior to dosing in test and standard groups. This was designated as “0” min reading. […] After test compounds administration animals in all three groups received Starch aqueous solution (2 gm/kg body weight). Blood glucose levels were monitored at 30, 60, 90 and 120 min after the administration of Starch in all the three groups. The percentage of increase in, blood glucose levels was calculated with respect to the control group at each time point.

Wistar rats [2] = assay: Carrageenan induced paw edema model; format: in vivo, rat; settings: Rattus norvegicus, po, 3 h
Description: Male Albino Wistar rats of 150-180 grams were used for the experiments.
Anti-inflammatory activity of test compounds was evaluated in Wistar rats employing the method of Winter et al (1963) and Diwan et al (1989). Male Wistar rats were used for the study. […] The different test compounds were administered to the animals in the test group at the dose of 100 mg/kg, by oral route. Animals in the standard group received Indomethacin at the dose of 10 mg/kg, by oral route. All test and standard compounds were administered as 1% gum acacia suspension. Rats in the control group received the vehicle solution without drugs. One hour after test drugs administration, rats in all the groups were challenged with 0.1 ml of 1% Carrageenan in the sub plantar region of right hind paw. A zero hour paw volume was measured for all the rats using digital plethysmometer (Ugo Basile, Italy) before the administration of carrageenan for all groups. Paw volumes were again measured 3 hrs after the challenge of Carrageenan. The percent inhibition of paw volume for each rat in treated groups was calculated by comparing with mean paw volume of control group and expressed as mean (±SE) percent inhibition of paw volume for each test. In a preliminary study the compounds that have shown good activity were evaluated for dose response study by using above procedure.

[3] = target: T1, porcine pancreatic α-amylase (Sus scrofa, UniProt P00690); assay: α-Amylase inhibition assay; format: biochemical; settings: 10 mg per ml; a/b marks the respective control (Control-1 2.147, Control-2 3.429)
T1 construct: α-amylase [EC 3.2.1.1) Type VI B: from porcine pancreas]; purchased Sigma Chemical Co., St Louis, Mo., USA; host or cells: porcine pancreas (natural source)
T1 sequence (P00690 16-511): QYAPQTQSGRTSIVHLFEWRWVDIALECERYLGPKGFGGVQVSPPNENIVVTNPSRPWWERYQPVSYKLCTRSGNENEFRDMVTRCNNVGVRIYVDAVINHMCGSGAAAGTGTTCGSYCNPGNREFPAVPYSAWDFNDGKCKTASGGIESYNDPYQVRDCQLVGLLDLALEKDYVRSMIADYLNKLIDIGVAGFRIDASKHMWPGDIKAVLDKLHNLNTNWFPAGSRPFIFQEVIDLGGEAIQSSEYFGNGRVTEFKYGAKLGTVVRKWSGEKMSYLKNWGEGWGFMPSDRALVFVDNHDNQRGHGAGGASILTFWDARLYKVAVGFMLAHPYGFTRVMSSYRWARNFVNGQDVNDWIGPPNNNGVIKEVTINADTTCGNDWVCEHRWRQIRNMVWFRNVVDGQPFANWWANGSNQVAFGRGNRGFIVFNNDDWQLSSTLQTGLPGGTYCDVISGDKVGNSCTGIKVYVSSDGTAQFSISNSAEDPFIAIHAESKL
Text: (§1) Chemicals: α-Glucosidase [(EC 3.2.1.20) Type I: from bakers yeast], rat intestinal acetone powder (as a source of crude intestinal α-glucosidase), α-amylase [EC 3.2.1.1) Type VI B: from porcine pancreas], p-nitrophenyl α-D-glucopyranoside, 3,5-dinitro salicylic acid, soluble potato starch and 1-deoxyrojirimycine, were purchased from Sigma Chemical Co., St Louis, Mo., USA. Other chemicals of analytical grade were procured from indigenous manufacturers.
a-Amylase Inhibition Assay: The assay method was adopted from Ali et al. (2006) and modified accordingly to suite microplate reading. In brief, 40 μL of test samples (10 mg/mL DMSO) were reconstituted in 160 μL of 20 mM phosphate buffer (pH 6.9) containing 6.7 mM sodium chloride in 2 mL Eppendorf tubes and incubated with 200 μL of porcine pancreatic α-amylase) (4 U/mL prepared in ice cold distilled water) for 5 min. The reaction was started by the addition of 400-μL soluble potato starch solution (0.5% w/v in 20 mM phosphate buffer, pH 6.9). Exactly 3 min after incubation, 400 μL DNS color reagent (1.0 g of 3,5-dinitrosalicylic acid, 30 g of sodium potassium tartrate and 20 mL of 2 N NaOH to a final volume of 100 mL in distilled water) was added. Closed tubes were placed in a water bath (85-90° C.) for 10 min to develop color and cooled thereafter. 50 μL of reaction mixtures was diluted with 175 μL of distilled water in a 96-well microplate. α-Amylase activity was determined by measuring the absorbance of the mixture at 540 nm spectrophotometrically as above. Individual blanks were prepared to correct for the background absorbance due to test samples. In this case DNS solution was added in tubes before addition of substrate. The percentage inhibition of enzyme activity was calculated as above. All the tests were run in duplicate in this assay.

[4] = system: crude intestinal α-glucosidase; assay: In-vitro mammalian (rat intestinal) α-glucosidase inhibition assay; format: biochemical; settings: highest concentration 5 mg/ml
Text: as §1
(§2) In-vitro a-Glucosidase Inhibition Assay: Yeast and intestinal a-glucosidase inhibitory activities were determined as per reported methods (Babu et al., 2004; Mc Dougall et al., 2005). Rat intestinal acetone powder in normal saline (100% w/v) was sonicated properly and the supernatant was used as a source of crude intestinal a-glucosidase after centrifugation. In brief, 20 μl, of test samples (100 mg/ml DMSO solution) were reconstituted in 100 μl of 100 mM-Phosphate buffer (pH 6.8) in a 96-well microplate and incubated with 50 μl yeast a-glucosidase (0.76 μ/ml in same buffer) or crude intestinal a-glucosidase for 5 min before 50-μl substrate (5 mM, […] prepared in same buffer) was added. Release of p-nitrophenyol was measured at 405 nm spectrophotometrically (Spectra Mas Plus 384, Molecular Device corporation, Sunnyvale, Calif., USA) 5 min after incubation with substrate, individual blank for test samples were prepared to correct background absorbance where the substrate was replaced with 50 μl of buffer. The control sample contained 20 μl DMSO in place of test samples. The percentage of enzyme inhibition was calculated as (A−B/A)×100 where A is represents the absorbance of the control without test samples, and B represents the absorbance in the presence of test samples. […] The IC50 values were calculated by applying logarithmic regression analysis from the mean inhibitory values.

mice = assay: Adenosine mediated bronchoconstriction and lung inflammation in an allergic mouse model; format: in vivo; set-up: Total count: unit not given here; settings: BAL fluid cells; 100 mg/kg oral
Description: Thienopyridines were proven as potent cytotoxic and anti-inflammatory agents in the previous experimental results. In cytotoxic MTT assay, activity of these molecules may be due to the involvement of adenosine receptors. Further, to find the bronchodilatory activity of these moieties and to find the involvement of adenosine receptors in their action, non-invasive and invasive adenosine mediated bronchoconstriction and lung inflammation in an allergic mouse model was performed.
Male mice, 6-8 weeks of age, free of specific pathogens were obtained from National Institute of Nutrition. The animals were maintained on a ragweed-free diet. All experimental protocols used in this study were under a protocol approved by animal ethical committee. Sensitization was performed according to the modified procedure described by Fan et al, 2002. Mice were sensitized on days 1 and 6 with i.p. injections of ragweed allergen (200 μg/200 μl of water for injection). Non-sensitized control animals received only water for injection with the same volumes. Ten days after sensitization, the mice were placed in plexiglas chamber and challenged with 0.5% ragweed or with 0.9% saline as a control for twenty minutes both in the morning and evening for three days. Then mice were divided into different groups consisting of six animals each. The groups including a control without sensitization; a sensitized group and a standard group along with groups of the test molecules were separated. Twenty-four hours after last challenge with ragweed, the mice were given an oral dose of test molecules and theophylline (100 mg/kg body weight) as acacia suspension. Two hours after administration of the oral dose, the mice were challenged with adenosine solution (24 mg/ml). The variation in respiration was recorded after anaesthetizing them with pentobarbitone sodium (0.1 ml 200 mg/ml ip) using kymograph. Then, mice were sacrificed and trachea was cannulated to collect the bronchoalveolar lavage fluid. This was performed by pumping 1 ml phosphate buffered saline into lungs through tracheal cannula and collecting the sample. Analysis of BAL fluid was performed to get the cellular differentials. The BAL fluid was centrifugated at 1500 rpm for six minutes at room temparature. After removing the supernatant, BAL cells were resuspended in 1 ml of phosphate buffered saline. Total cells were then counted manually in a hemocytometer chamber. A differential count of at least 300 cells was made according to the standard morphologic criteria and results were mentioned in table.

yeast α-glucosidase = target: T2, yeast α-glucosidase (Saccharomyces cerevisiae, UniProt P53341); assay: In-vitro yeast α-glucosidase inhibition assay; format: biochemical, bakers yeast
T2 construct: α-Glucosidase [(EC 3.2.1.20) Type I: from bakers yeast]
T2 sequence (P53341 whole entry): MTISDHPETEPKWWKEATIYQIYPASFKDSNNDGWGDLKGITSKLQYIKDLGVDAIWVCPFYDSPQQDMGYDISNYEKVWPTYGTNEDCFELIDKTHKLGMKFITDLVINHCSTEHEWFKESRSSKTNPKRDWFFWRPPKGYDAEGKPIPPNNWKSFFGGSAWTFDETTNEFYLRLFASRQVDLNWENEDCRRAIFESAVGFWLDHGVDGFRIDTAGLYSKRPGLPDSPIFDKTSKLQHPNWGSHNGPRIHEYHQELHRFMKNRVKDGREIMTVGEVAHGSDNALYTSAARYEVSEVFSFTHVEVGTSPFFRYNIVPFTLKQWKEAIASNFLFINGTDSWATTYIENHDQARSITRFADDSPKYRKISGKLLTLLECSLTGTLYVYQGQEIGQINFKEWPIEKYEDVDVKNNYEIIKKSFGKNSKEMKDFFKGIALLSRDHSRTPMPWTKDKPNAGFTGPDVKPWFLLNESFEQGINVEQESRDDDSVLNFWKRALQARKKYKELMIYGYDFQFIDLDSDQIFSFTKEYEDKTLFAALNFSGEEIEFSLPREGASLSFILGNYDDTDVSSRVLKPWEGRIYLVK
Text: as §1, §2

Structure (SMILES) | % Increase in glucose, 30 min (Wistar rats [1]; 30 min after starch) [%] | Blood glucose level, 30 min (Wistar rats [1]; 30 min after starch, in mg/dL (unit assumed)) | % Increase in glucose, 60 min (Wistar rats [1]; 60 min after starch) [%] | Blood glucose level, 60 min (Wistar rats [1]; 60 min after starch, in mg/dL (unit assumed)) | % Increase in glucose, 90 min (Wistar rats [1]; 90 min after starch) [%] | Blood glucose level, 90 min (Wistar rats [1]; 90 min after starch, in mg/dL (unit assumed)) | % Increase in glucose, 120 min (Wistar rats [1]; 120 min after starch) [%] | Blood glucose level, 120 min (Wistar rats [1]; 120 min after starch, in mg/dL (unit assumed)) | Blood glucose level, 0 min (Wistar rats [1]; basal, prior to dosing, starch 2 gm/kg, in mg/dL (unit assumed)) | change in vivo at 100 mg/kg (Wistar rats [2]; read-out: % Increase in Paw Volume) [%] | inhibition in vivo at 100 mg/kg (Wistar rats [2]; read-out: % Inhibition (paw volume)) [%] | Maltose released [3] [mg/mL] | Mammalian α Glucosidase Inhibition (Mean ± S.E) [4] [%] | Differential count (%) Eosinophils (mice) [%] | Differential count (%) Lymphocytes (mice) [%] | Differential count (%) Monocytes (mice) [%] | Total count (mice) | Yeast α-glucosidase enzyme inhibitory activity (in words) (yeast α-glucosidase)
C[C@H]1O[C@H](O[C@H]2[C@H](O)[C@@H](O)[C@@H](O[C@H]3[C@H](O)[C@@H](O)C(O)O[C@@H]3CO)O[C@@H]2CO)[C@H](O)[C@@H](O)[C@@H]1N[C@H]1C=C(CO)[C@@H](O)[C@H](O)[C@H]1O (stereo partly drawn) [Acarbose, reference compound] | 23.55 | 103.17 | 32.03 | 110.17 | 31.78 | 109.83 | 30.27 | 108.62 | 83.50 |  |  |  |  |  |  |  |  | 
Nc1c2c(nc3sc4c(c13)CCCCC4)CCCC2 [BN-19, 2,3,4,7,8,9,10,11-Octahydro-1H-cyclohepta[4,5]thieno[2,3-b]quinolin-12-Amine] |  |  |  |  |  |  |  |  |  | 90.4 ± 11.4 | 0 | 3.282 | 0.0 ± 0.0 | 10 | 80 | 10 | 11.5 | moderate inhibitory activity
